Columns and labels:
Format in all cases: in vivo
[1] = system: Diabrotica Balteata (Corn Root Worm); test: Activity against Diabrotica balteata (corn root worm), sprayed maize sprouts; settings: 96 h, application rate 200 ppm, L2 larvae on sprayed maize sprouts, 4 days after infestation, read-out: effect in at least one of the two categories (mortality or growth inhibition)
Experimental: Example B1: Activity Against Diabrotica Balteata (Corn Root Worm)
Maize sprouts placed onto an agar layer in 24-well microtiter plates were treated with aqueous test solutions prepared from 10′000 ppm DMSO stock solutions by spraying. After drying, the plates were infested with L2 larvae (6 to 10 per well). The samples were assessed for mortality and growth inhibition in comparison to untreated samples 4 days after infestation.

[2] = system: Myzus persicae (Green Peach Aphid); test: Activity against Myzus persicae (green peach aphid), feeding/contact activity; settings: foliar, 144 h, application rate 200 ppm, sprayed sunflower leaf discs, aphid population of mixed ages, 6 days after infestation
Experimental: Example B2: Activity Against Myzus persicae (Green Peach Aphid) Feeding/Contact Activity
Sunflower leaf discs were placed onto agar in a 24-well microtiter plate and sprayed with aqueous test solutions prepared from 10′000 ppm DMSO stock solutions. After drying, the leaf discs were infested with an aphid population of mixed ages. The samples were assessed for mortality 6 days after infestation.

[3] = system: Spodoptera littoralis (Egyptian Cotton Leaf Worm); test: Activity against Spodoptera littoralis (Egyptian cotton leaf worm); settings: foliar, 72 h, application rate 200 ppm, sprayed cotton leaf discs, L1 larvae, 3 days after infestation
Experimental: Example B3: Activity Against Spodoptera littoralis (Egyptian Cotton Leaf Worm)
Cotton leaf discs were placed onto agar in 24-well microtiter plates and sprayed with aqueous test solutions prepared from 10′000 ppm DMSO stock solutions. After drying the leaf discs were infested with five L1 larvae. The samples were assessed for mortality, anti-feeding effect, and growth inhibition in comparison to untreated samples 3 days after infestation. Control of Spodoptera littoralis by a test sample is given when at least one of the categories mortality, anti-feedant effect, and growth inhibition is higher than the untreated sample.

[4] = system: Chilo suppressalis (Striped Rice Stemborer); test: Activity against Chilo suppressalis (striped rice stemborer); settings: 144 h, application rate 200 ppm, artificial diet, L2 larvae, 6 days after infestation
Experimental: Example B5: Activity Against Chilo suppressalis (Striped Rice Stemborer)
24-well microtiter plates with artificial diet were treated with aqueous test solutions prepared from 10′000 ppm DMSO stock solutions by pipetting. After drying, the plates were infested with L2 larvae (6-8 per well). The samples were assessed for mortality, anti-feeding effect, and growth inhibition in comparison to untreated samples 6 days after infestation. Control of Chilo suppressalis by a test sample is given when at least one of the categories mortality, anti-feedant effect, and growth inhibition is higher than the untreated sample.

[5] = system: Euschistus heros (Neotropical Brown Stink Bug); test: Activity against Euschistus heros (neotropical brown stink bug); settings: 120 h, application rate 200 ppm, sprayed soybean leaves, N2 nymphs, 5 days after infestation, read-out: effect in at least one of the two categories (mortality or growth inhibition)
Experimental: Example B6: Activity Against Euschistus heros (Neotropical Brown Stink Bug)
Soybean leaves on agar in 24-well microtiter plates were sprayed with aqueous test solutions prepared from 10′000 ppm DMSO stock solutions. After drying the leaves were infested with N2 nymphs. The samples were assessed for mortality and growth inhibition in comparison to untreated samples 5 days after infestation.

[6] = system: Plutella xylostella (Diamond Back Moth); test: Activity against Plutella xylostella (diamond back moth); settings: 192 h, application rate 200 ppm, artificial diet, Plutella eggs, 8 days after infestation, read-out: effect in at least one of the two categories (mortality or growth inhibition)
Experimental: Example B8: Activity Against Plutella xylostella (Diamond Back Moth)
24-well microtiter plates with artificial diet were treated with aqueous test solutions prepared from 10′000 ppm DMSO stock solutions by pipetting. After drying, Plutella eggs were pipetted through a plastic stencil onto a gel blotting paper and the plate was closed with it. The samples were assessed for mortality and growth inhibition in comparison to untreated samples 8 days after infestation.

[7] = system: Nilaparvata lugens (Brown Plant Hopper); test: Activity against Nilaparvata lugens (brown plant hopper), larvicide, systemic into water; settings: 168 h, application rate 12.5 ppm, rice plants in nutritive solution, N3 nymphs, 7 days after infestation
Experimental: Example B9: Activity Against Nilaparvata lugens (Brown Plant Hopper) Larvicide, Systemic into Water
Rice plants cultivated in a nutritive solution were treated with the diluted test solutions into nourishing cultivation system. 1 day after application plants were infested with ˜20 N3 nymphs. 7 days after infestation samples were assessed for mortality and growth regulation.

[8] = system: Carpocapsa (Cydia) Pomonella (Codling Moth); test: Activity against Carpocapsa (Cydia) pomonella (codling moth), larvicide, feeding/contact; settings: 336 h, application rate 12.5 ppm, sprayed diet cubes, L1 larvae, 14 days after infestation
Experimental: Example B10: Activity Against Carpocapsa (Cydia) Pomonella (Codling Moth) Larvicide, Feeding/Contact
Diet cubes coated with paraffin were sprayed with diluted test solutions in an application chamber. After drying off the treated cubes (10 replicates) were infested with 1 L1 larvae. Samples were incubated at 26-27° C. and checked 14 days after infestation for mortality and growth inhibition.

[9] = system: Bemisia tabaci (Cotton White Fly); test: Activity against Bemisia tabaci (cotton white fly); settings: foliar, 144 h, application rate 200 ppm, sprayed cotton leaf discs, adult white flies, 6 days after incubation
Experimental: Example B4: Activity Against Bemisia tabaci (Cotton White Fly)
Cotton leaf discs were placed on agar in 24-well microtiter plates and sprayed with aqueous test solutions prepared from 10′000 ppm DMSO stock solutions. After drying the leaf discs were infested with adult white flies. The samples were checked for mortality 6 days after incubation.

[10] = system: Frankliniella occidentalis (Western Flower Thrips); test: Activity against Frankliniella occidentalis (western flower thrips); settings: foliar, 168 h, application rate 200 ppm, sprayed sunflower leaf discs, population of mixed ages, 7 days after infestation
Experimental: Example B7: Activity Against Frankliniella occidentalis (Western Flower Thrips)
Sunflower leaf discs were placed on agar in 24-well microtiter plates and sprayed with aqueous test solutions prepared from […] stock solutions. After drying the leaf discs were infested with a Frankliniella population of mixed ages. The samples were assessed for mortality 7 days after infestation.

[11] = system: Myzus persicae (Green Peach Aphid); test: Myzus persicae (green peach aphid), systemic activity; settings: 144 h, test rate 24 ppm, roots of infested pea seedlings in test solution, 6 days
Experimental: Example B11: Myzus persicae (Green Peach Aphid). Systemic Activity
Roots of pea seedlings infested with an aphid population of mixed ages were placed directly into aqueous test solutions prepared from 10′000 DMSO stock solutions. The samples were assessed for mortality 6 days after placing seedlings into test solutions.

CCS(=O)(=O)c1c(N2Cc3ncc(C(F)(F)F)cc3C2=O)nn2cc(C3CC3)ccc12 [Compound P1, 6-(6-cyclopropyl-3-ethylsulfonyl-pyrazolo[1,5-a]pyridin-2-yl)-3-(trifluoromethyl)-7H-pyrrolo[3,4-b]pyridin-5-one]
≥ 80%: percent effect (mortality or growth inhibition) at 200 ppm [1] | mortality at 200 ppm [2] | percent control (mortality, anti-feedant effect or growth inhibition) at 200 ppm [3] | percent control (mortality, anti-feedant effect or growth inhibition) at 200 ppm [4] | percent effect (mortality or growth inhibition) at 200 ppm [5] | percent effect (mortality or growth inhibition) at 200 ppm [6] | mortality at 12.5 ppm [7] | mortality at 12.5 ppm [8]

CCS(=O)(=O)c1c(N2Cc3ccc(OC(F)(F)F)cc3C2=O)nn2ccc(C(F)(F)F)cc12 [Compound P2, 2-[3-ethylsulfonyl-5-(trifluoromethyl)pyrazolo[1,5-a]pyridin-2-yl]-6-(trifluoromethoxy)isoindolin-1-one]
≥ 80%: percent effect (mortality or growth inhibition) at 200 ppm [1] | mortality at 200 ppm [2] | percent control (mortality, anti-feedant effect or growth inhibition) at 200 ppm [3] | mortality at 200 ppm [9] | percent control (mortality, anti-feedant effect or growth inhibition) at 200 ppm [4] | percent effect (mortality or growth inhibition) at 200 ppm [6] | mortality at 12.5 ppm [8]

CCS(=O)(=O)c1c(N2Cc3ccc(S(=O)(=O)C(F)(F)F)cc3C2=O)nn2ccc(C(F)(F)F)cc12 [Compound P3, 2-[3-ethylsulfonyl-5-(trifluoromethyl)pyrazolo[1,5-a]pyridin-2-yl]-6-(trifluoromethylsulfonyl)isoindolin-1-one]
≥ 80%: percent effect (mortality or growth inhibition) at 200 ppm [1] | mortality at 200 ppm [2] | percent control (mortality, anti-feedant effect or growth inhibition) at 200 ppm [3] | percent control (mortality, anti-feedant effect or growth inhibition) at 200 ppm [4] | mortality at 200 ppm [10] | percent effect (mortality or growth inhibition) at 200 ppm [6] | mortality at 12.5 ppm [8]

CCS(=O)(=O)c1c(N2Cc3ncc(C(F)(F)F)cc3C2=O)nn2cc(C3(C#N)CC3)ccc12 [Compound P4, 1-[3-ethylsulfonyl-2-[5-oxo-3-(trifluoromethyl)-7H-pyrrolo[3,4-b]pyridin-6-yl]pyrazolo[1,5-a]pyridin-6-yl]cyclopropanecarbonitrile]
≥ 80%: percent effect (mortality or growth inhibition) at 200 ppm [1] | mortality at 200 ppm [2] | percent control (mortality, anti-feedant effect or growth inhibition) at 200 ppm [3] | percent control (mortality, anti-feedant effect or growth inhibition) at 200 ppm [4] | percent effect (mortality or growth inhibition) at 200 ppm [5] | mortality at 200 ppm [10] | percent effect (mortality or growth inhibition) at 200 ppm [6] | mortality at 12.5 ppm [7] | mortality at 12.5 ppm [8]

CCS(=O)(=O)c1c(N2Cc3ncc(C(F)(F)F)cc3C2=O)nn2ccc(C(F)(F)F)cc12 [Compound P5, 6-[3-ethylsulfonyl-5-(trifluoromethyl)pyrazolo[1,5-a]pyridin-2-yl]-3-(trifluoromethyl)-7H-pyrrolo[3,4-b]pyridin-5-one]
≥ 80%: percent effect (mortality or growth inhibition) at 200 ppm [1] | percent control (mortality, anti-feedant effect or growth inhibition) at 200 ppm [3] | percent control (mortality, anti-feedant effect or growth inhibition) at 200 ppm [4] | percent effect (mortality or growth inhibition) at 200 ppm [5] | percent effect (mortality or growth inhibition) at 200 ppm [6] | mortality at 12.5 ppm [7] | mortality at 12.5 ppm [8]

CCS(=O)(=O)c1c(N2Cc3ncc(C(F)(F)F)cc3C2=O)nn2cc(C(F)(F)F)ccc12 [Compound P6, 6-[3-ethylsulfonyl-6-(trifluoromethyl)pyrazolo[1,5-a]pyridin-2-yl]-3-(trifluoromethyl)-7H-pyrrolo[3,4-b]pyridin-5-one]
≥ 80%: percent effect (mortality or growth inhibition) at 200 ppm [1] | mortality at 200 ppm [2] | percent control (mortality, anti-feedant effect or growth inhibition) at 200 ppm [3] | percent control (mortality, anti-feedant effect or growth inhibition) at 200 ppm [4] | percent effect (mortality or growth inhibition) at 200 ppm [6] | mortality at 12.5 ppm [7] | mortality at 12.5 ppm [8]

CCS(=O)(=O)c1c(N2Cc3ncc(C(F)(F)F)cc3C2=O)nn2cc(C(C)(C)C#N)ccc12 [Compound P7, 2-[3-ethylsulfonyl-2-[5-oxo-3-(trifluoromethyl)-7H-pyrrolo[3,4-b]pyridin-6-yl]pyrazolo[1,5-a]pyridin-6-yl]-2-methyl-propanenitrile]
≥ 80%: percent effect (mortality or growth inhibition) at 200 ppm [1] | mortality at 200 ppm [2] | percent control (mortality, anti-feedant effect or growth inhibition) at 200 ppm [3] | percent control (mortality, anti-feedant effect or growth inhibition) at 200 ppm [4] | percent effect (mortality or growth inhibition) at 200 ppm [5] | mortality at 200 ppm [10] | percent effect (mortality or growth inhibition) at 200 ppm [6] | mortality at 24 ppm [11]

Source: US20230348496A1, “PESTICIDALLY ACTIVE HETEROCYCLIC DERIVATIVES WITH SULFUR CONTAINING SUBSTITUENTS” (SYNGENTA CROP PROTECTION AG, priority 2020, published 2023)
